According to article PMC3901395, “Multivalent interactions of the SUMO-interaction motifs in RING finger protein 4 determine the specificity for chains of the SUMO” (Biochemical Journal, 2013):
Peptide text beside a SMILES is read from it.

Tests used:
1xSUMO2ΔN11 (mono-SUMO2) = molecular target: T1, 1xSUMO2ΔN11 (mono-SUMO2) (Homo sapiens, UniProt P61956); test: ITC binding to mono-SUMO2 (1xSUMO2ΔN11)
T1 construct: a C-terminal GG motif and a stop codon; GST (N, cleaved yes); made in house; host or cells: E. coli Rosetta 2(DE3)pLysS
From the text: (§1) For expression in Escherichia coli, linear poly-SUMO chains were generated as described previously with slight modifications. After the combined PCR/ligation reaction, the 4×SUMO2-ΔN11 or 4×SUMO1-ΔN15 DNA polymers were separated from smaller polymers by agarose gel electrophoresis and individually extracted (Macherey–Nagel). These were then subjected to a second PCR with primers to create BamHI and XhoI restriction sites, a C-terminal GG motif and a stop codon. The resulting fragments coding for di-, tri- and tetra-SUMO2-ΔN11 or SUMO1-ΔN15 chains were amplified and cloned into pGEX-4T2. […] Each monomer in these chains is separated by RS replacing the natural GG motif. A similar strategy was used to design C-terminally GFP–HA2-tagged linear poly-SUMOs in the copper-inducible Ycplac22 vector for expression in S. cerevisiae. […]
(§2) The mono-SUMOs and linear poly-SUMO1 and poly-SUMO2 proteins as well as all RNF4 constructs were expressed as GST-fusion proteins from E. coli Rosetta™ 2(DE3)pLysS cells (Novagen) cultivated in LB medium with 100 μg/ml ampicillin and 30 μg/ml chloramphenicol after induction with 0.1 mM IPTG at 20°C for 12 h. […]
(§3) Binding of peptides and proteins to SUMOs was investigated by ITC using either a VP-ITC or an ITC200 (GE Healthcare). […] Protein concentrations were determined by measuring the absorption at 280 nm. […]

2xSUMO2ΔN11 (di-SUMO2) = molecular target: T2, 2xSUMO2ΔN11 (di-SUMO2) (Homo sapiens, UniProt P61956); test: ITC binding to linear di-SUMO2 (2xSUMO2ΔN11); conditions: linear di-SUMO2
T2 construct: Each monomer in these chains is separated by RS replacing the natural GG motif; a C-terminal GG motif and a stop codon; GST (N, cleaved yes); made in house; host or cells: E. coli Rosetta 2(DE3)pLysS
From the text: as §1, §2, §3

T2 sequence (P61956 with tags, fused parts or gaps): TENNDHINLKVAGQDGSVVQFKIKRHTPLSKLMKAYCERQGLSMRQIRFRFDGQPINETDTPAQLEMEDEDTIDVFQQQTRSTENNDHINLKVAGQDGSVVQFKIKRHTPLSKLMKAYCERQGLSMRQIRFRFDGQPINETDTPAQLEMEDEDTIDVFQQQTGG
T1 sequence (P61956 12-93 limits assumed, stated change not applied): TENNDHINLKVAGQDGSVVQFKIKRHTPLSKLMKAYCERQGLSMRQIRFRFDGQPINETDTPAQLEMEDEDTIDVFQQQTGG

SMILES	affinity for mono-SUMO2 (1xSUMO2ΔN11 (mono-SUMO2))	affinity for di-SUMO2 (2xSUMO2ΔN11 (di-SUMO2))
CC[C@H](C)[C@H](NC(=O)[C@@H](NC(=O)[C@H](CCC(=O)O)NC(=O)[C@@H](NC(=O)[C@H](CCCCN)NC(=O)[C@@H](N)CCCCN)C(C)C)C(C)C)C(=O)N[C@@H](CC(=O)O)C(=O)N[C@@H](CC(C)C)C(=O)N[C@H](C(=O)N[C@H](C(=O)N[C@@H](CC(=O)O)C(=O)N[C@@H](CO)C(=O)N[C@@H](CO)C(=O)N[C@@H](CO)C(=O)N[C@@H](CC(=O)O)C(=O)N[C@@H](CCC(=O)O)C(=O)O)[C@@H](C)CC)[C@@H](C)O [PIAS1pep] (H-KKVEVIDLTIDSSSDE-OH; N-terminus and C-terminus assumed)	much stronger than the binding of any RNF4-derived tandem SIM peptide	–
CC[C@H](C)[C@H](NC(=O)[C@H](CCC(=O)O)NC(=O)[C@H](CC(=O)O)NC(=O)CN)C(=O)N[C@H](C(=O)N[C@@H](CC(=O)O)C(=O)N[C@@H](CC(C)C)C(=O)N[C@H](C(=O)N[C@@H](CS)C(=O)N[C@@H](CCC(=O)O)C(=O)N[C@@H](CO)C(=O)N[C@@H](CC(C)C)C(=O)N[C@@H](CCC(=O)O)C(=O)N1CCC[C@H]1C(=O)N[C@H](C(=O)N[C@H](C(=O)N[C@H](C(=O)N[C@@H](CC(=O)O)C(=O)N[C@@H](CC(C)C)C(=O)N[C@H](C(=O)N[C@@H](Cc1c[nH]cn1)C(=O)N[C@@H](CC(N)=O)C(=O)N[C@@H](CC(=O)O)C(=O)N[C@@H](CO)C(=O)O)[C@@H](C)O)C(C)C)C(C)C)C(C)C)[C@@H](C)O)C(C)C [RNF4-SIM2/3pep] (H-GDEIVDLTCESLEPVVVDLTHNDS-OH; N-terminus and C-terminus assumed)	–	very similar to the one of the whole RNF4-SIM domain for di-SUMO2
CC[C@H](C)[C@H](NC(=O)[C@@H](NC(=O)[C@H](CCC(=O)O)NC(=O)[C@H](CO)NC(=O)[C@H](CO)NC(=O)[C@H](CO)NC(=O)[C@H](CO)NC(=O)[C@H](CC(=O)O)NC(=O)[C@@H](NC(=O)[C@@H](NC(=O)[C@H](CC(C)C)NC(=O)[C@H](CC(=O)O)NC(=O)[C@@H](NC(=O)[C@@H](NC(=O)[C@H](CCC(=O)O)NC(=O)[C@@H](NC(=O)[C@H](CCCCN)NC(=O)[C@@H](N)CCCCN)C(C)C)C(C)C)[C@@H](C)CC)[C@@H](C)O)[C@@H](C)CC)C(C)C)C(=O)N[C@@H](CC(=O)O)C(=O)N[C@@H](CC(C)C)C(=O)N[C@H](C(=O)N[C@H](C(=O)N[C@@H](CC(=O)O)C(=O)N[C@@H](CO)C(=O)N[C@@H](CO)C(=O)O)[C@@H](C)CC)[C@@H](C)O [2xPIAS1pep, reference compound] (H-KKVEVIDLTIDSSSSEVIDLTIDSS-OH; N-terminus and C-terminus assumed)	–	exceeded the affinities of the RNF4-SIM2/3 peptide
